Experimental data published in patent US20090175882A1, “METHODS AND COMPOSITIONS FOR TREATING HYPERALGESIA” (IRM LLC, priority 2006, published 2009).
pIC50: −log10 of the molar value. Entries after “also recorded” stand apart in the source; their conditions may differ.

Experiments:
mouse TRPA1 = biological target: T1, mouse TRPA1 (Mus musculus, UniProt Q8BLA8); test: FLIPR calcium-influx assay, block of cinnamaldehyde activation, CHO cells; format: cell-based; conditions: elicited by 50 μM cinnamaldehyde, CHO cells
T1 construct: expressed in transfected cells; host or cells: CHO cells (tetracycline-induced for PatchXpress; mTRPA1-pcDNA5 named for the transient labelling experiment)
T1 sequence (Q8BLA8 whole entry): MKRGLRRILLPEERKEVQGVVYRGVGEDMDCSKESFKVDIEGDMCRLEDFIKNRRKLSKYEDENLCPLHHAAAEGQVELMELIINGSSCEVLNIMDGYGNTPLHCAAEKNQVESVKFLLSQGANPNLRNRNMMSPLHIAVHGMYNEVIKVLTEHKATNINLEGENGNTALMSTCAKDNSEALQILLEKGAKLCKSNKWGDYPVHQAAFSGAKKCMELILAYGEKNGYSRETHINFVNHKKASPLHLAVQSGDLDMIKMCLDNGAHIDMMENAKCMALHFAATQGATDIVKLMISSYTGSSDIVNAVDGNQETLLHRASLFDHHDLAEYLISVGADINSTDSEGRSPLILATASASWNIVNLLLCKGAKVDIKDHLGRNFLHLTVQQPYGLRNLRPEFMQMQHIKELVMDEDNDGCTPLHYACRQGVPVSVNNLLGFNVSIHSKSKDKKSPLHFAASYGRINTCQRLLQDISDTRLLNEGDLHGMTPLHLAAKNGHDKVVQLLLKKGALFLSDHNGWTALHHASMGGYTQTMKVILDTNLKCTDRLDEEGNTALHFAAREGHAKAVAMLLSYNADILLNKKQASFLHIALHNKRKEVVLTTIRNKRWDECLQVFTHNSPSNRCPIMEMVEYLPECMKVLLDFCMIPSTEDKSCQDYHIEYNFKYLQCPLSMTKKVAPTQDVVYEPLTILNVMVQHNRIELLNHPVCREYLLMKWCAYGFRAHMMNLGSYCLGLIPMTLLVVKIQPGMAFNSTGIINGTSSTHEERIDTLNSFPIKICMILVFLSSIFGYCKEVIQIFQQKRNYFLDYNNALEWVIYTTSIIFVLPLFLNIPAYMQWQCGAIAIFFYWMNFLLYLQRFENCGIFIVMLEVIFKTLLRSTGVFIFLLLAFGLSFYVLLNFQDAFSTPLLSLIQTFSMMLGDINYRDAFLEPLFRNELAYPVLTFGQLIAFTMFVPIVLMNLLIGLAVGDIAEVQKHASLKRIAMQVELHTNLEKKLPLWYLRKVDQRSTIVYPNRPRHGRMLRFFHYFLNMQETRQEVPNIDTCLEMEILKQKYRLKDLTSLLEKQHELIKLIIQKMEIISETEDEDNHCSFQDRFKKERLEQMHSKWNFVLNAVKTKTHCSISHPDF
Description: (§1) Calcium influx was measured using a standard FLIPR assay, data points are the average of 4 wells (˜8,000 cells/well) and error bars show standard error. […] Data was generated using the FLIPR calcium-influx assay, n=3 wells (˜8,000 cells/well) and normalized to the maximal response. Bars show standard error and solid curves are hill equation fits from which EC50 values are derived.
(§2) Using FLIPR calcium-influx assay, we screened 43,648 small molecules for their ability to block cinnamaldehyde-activation of human TRPA1 in a CHO cell line.
(§3) FLIPR Screen: CHO cells expressing human TRPA1 were plated into 384 well plates at a concentration of ˜8,000 cells/well. Cells were transferred to phosphate-buffered saline (PBS) and loaded with the calcium sensitive dye FLUO-4 using the FLIPR Calcium 3 Assay Kit (Molecular Devices, Sunnyvale, Calif.) 1 hour prior to the assay. Assays were run using the FLIPR2 (Molecular Devices, Sunnyvale, Calif.). All compounds were diluted into PBS from a high concentration DMSO-based stock solution and added during data collection with the FLIPR2 internal pipette head. Final DMSO concentrations never exceeded 0.5%.

rat TRPA1 = rat TRPA1 (Rattus norvegicus, UniProt Q6RI86); test: Block of rat TRPA1 (data not shown); format: cell-based
Chain of rat TRPA1 (Q6RI86 whole entry): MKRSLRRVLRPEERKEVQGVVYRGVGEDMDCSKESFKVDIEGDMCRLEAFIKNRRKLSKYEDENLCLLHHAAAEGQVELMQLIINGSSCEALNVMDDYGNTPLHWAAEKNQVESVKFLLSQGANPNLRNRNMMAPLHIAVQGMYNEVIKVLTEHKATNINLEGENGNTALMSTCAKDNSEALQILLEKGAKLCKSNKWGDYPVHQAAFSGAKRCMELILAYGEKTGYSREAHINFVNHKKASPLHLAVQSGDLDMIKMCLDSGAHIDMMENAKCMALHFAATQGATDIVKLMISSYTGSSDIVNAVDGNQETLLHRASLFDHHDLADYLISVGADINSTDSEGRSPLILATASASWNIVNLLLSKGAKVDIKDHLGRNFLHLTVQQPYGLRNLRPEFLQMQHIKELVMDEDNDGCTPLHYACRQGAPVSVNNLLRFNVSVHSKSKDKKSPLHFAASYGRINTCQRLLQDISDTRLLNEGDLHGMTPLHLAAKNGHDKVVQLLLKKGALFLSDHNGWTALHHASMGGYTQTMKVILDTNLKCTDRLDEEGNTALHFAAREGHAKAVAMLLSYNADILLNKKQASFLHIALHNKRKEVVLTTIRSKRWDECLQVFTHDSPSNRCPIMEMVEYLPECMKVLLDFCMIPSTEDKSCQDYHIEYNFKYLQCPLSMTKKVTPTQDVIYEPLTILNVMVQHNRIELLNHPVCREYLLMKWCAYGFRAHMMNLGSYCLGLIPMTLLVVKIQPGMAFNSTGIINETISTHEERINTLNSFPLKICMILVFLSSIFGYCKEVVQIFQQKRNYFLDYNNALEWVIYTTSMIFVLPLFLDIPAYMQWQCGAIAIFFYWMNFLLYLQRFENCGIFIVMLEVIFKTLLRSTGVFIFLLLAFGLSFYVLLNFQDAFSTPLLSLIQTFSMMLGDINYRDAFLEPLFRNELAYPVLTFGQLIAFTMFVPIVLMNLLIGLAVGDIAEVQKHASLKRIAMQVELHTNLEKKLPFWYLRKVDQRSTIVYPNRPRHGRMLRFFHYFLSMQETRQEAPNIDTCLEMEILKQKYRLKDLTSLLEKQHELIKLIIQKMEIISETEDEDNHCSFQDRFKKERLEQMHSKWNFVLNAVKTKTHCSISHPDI

TRPV1 = biological target: T2, TRPV1 (Rattus norvegicus, UniProt O35433); test: ThermoTRP selectivity test; format: cell-based; conditions: at 50 μM (data not shown)
T2 construct: expressed in transfected cells; not restated for the selectivity test

TRPV3 = biological target: T3, TRPV3 (Mus musculus, UniProt Q8K424); test: ThermoTRP selectivity test; format: cell-based; conditions: at 50 μM (data not shown)
T3 construct: expressed in transfected cells; not restated for the selectivity test
T3 sequence (Q8K424 1-791): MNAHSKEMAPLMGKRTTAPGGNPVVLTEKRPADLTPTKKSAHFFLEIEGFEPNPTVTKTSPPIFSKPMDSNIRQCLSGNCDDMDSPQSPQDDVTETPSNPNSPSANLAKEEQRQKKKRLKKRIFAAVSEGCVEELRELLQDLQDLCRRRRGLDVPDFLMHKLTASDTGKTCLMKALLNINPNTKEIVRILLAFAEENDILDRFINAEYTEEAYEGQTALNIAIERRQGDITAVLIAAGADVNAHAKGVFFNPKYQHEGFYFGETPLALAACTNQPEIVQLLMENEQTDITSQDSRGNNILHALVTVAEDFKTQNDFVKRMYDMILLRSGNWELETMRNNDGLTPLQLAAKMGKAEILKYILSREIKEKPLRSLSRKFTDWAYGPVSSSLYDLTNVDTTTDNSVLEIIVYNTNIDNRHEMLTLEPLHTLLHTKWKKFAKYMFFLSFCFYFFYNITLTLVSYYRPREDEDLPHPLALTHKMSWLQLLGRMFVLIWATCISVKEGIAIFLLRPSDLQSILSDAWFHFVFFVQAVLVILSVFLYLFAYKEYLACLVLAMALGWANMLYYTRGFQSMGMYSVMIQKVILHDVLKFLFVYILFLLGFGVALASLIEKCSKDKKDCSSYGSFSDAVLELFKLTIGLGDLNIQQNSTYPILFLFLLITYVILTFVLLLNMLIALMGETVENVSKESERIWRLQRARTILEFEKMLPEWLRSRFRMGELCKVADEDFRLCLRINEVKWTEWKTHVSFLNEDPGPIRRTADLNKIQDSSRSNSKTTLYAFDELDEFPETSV

TRPV4 = biological target: T4, TRPV4 (Rattus norvegicus, UniProt Q9ERZ8); test: ThermoTRP selectivity test; format: cell-based; conditions: at 50 μM (data not shown)
T4 construct: expressed in transfected cells; not restated for the selectivity test

TRPM8 = biological target: T5, TRPM8 (Mus musculus, UniProt Q8R4D5); test: ThermoTRP selectivity test; format: cell-based; conditions: at 50 μM (data not shown)
T5 construct: expressed in transfected cells; not restated for the selectivity test
T5 sequence (Q8R4D5 whole entry): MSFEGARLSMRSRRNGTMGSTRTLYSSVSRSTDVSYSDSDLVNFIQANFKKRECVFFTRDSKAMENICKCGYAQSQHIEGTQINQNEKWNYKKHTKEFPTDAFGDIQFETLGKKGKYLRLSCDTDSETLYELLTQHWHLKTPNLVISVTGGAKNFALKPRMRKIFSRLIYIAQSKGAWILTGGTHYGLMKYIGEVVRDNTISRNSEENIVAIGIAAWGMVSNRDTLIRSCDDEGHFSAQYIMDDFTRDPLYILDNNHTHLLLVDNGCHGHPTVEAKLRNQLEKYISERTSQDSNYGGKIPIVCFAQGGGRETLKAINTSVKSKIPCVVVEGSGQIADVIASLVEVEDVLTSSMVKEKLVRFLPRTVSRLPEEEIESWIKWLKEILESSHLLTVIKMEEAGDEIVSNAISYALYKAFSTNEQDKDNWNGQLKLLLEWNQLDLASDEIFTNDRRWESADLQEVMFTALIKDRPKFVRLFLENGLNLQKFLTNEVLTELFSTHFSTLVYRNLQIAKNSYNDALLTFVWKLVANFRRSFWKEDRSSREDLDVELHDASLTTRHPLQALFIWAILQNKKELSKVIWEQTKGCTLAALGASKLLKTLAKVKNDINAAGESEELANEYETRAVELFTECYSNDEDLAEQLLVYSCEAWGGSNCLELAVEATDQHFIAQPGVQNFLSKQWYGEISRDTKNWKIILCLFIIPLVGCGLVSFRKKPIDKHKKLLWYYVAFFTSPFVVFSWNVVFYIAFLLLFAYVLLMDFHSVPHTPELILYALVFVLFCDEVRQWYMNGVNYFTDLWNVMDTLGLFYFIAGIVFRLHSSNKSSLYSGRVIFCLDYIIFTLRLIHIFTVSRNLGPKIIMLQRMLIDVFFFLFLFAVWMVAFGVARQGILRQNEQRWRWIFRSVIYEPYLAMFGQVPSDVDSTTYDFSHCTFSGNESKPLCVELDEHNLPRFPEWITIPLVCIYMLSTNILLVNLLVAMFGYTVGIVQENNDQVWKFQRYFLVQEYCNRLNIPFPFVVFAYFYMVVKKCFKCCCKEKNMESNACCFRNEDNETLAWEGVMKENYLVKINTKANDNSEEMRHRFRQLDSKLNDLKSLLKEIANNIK

[1] = test system: cinnamaldehyde-induced nociceptive events; test: Acute nociceptive behaviour after hindpaw injection of cinnamaldehyde; format: in vivo, mice; conditions: cinnamaldehyde 16.4 mM coinjected with compound 18 1 mM
Description: Time spent licking and flicking hindpaws injected with cinnamaldehyde (16.4 mM) or capsaicin (0.328 mM) is measured for 5 min and compared with the hindpaw of another animal coinjected with compound 18 (1 mM). Numbers of cases for each experiment from the left is 8, 8, 6 and 6, respectively (***p<0.001, *p<0.05, two-tailed Student's T-test).
We next set out to test if acute block of TRPA1 had any physiological consequence on pain sensation. […] To test the efficacy and specificity of compound 18 in vivo, we coinjected cinnamaldehyde and compound 18 in hindpaw of mice.
Behavioral assays: Mice (C57B16 Mus musculus) of 8-10 weeks in age and 150-250 g Sprague Dawley rats were used for all behavioral assays. Animals were acclimated for 20-60 min to their testing environment prior to all experiments. Students' T test was used for all statistical calculations. All error bars represent standard error of the mean (SEM). […] Briefly, mice were acclimated for 60 min to their testing environment prior to all experiments.

[2] = Behavioral response to the compound alone in hindpaw; format: in vivo; conditions: 1-10 mM in hindpaw of mice (data not shown)
[3] = test system: acute heat or pressure to the paw; test: Nociceptive responses to acute heat or pressure to the paw; format: in vivo; conditions: data not shown
[4] = test system: CFA-induced mechanical hyperalgesia; test: CFA-induced mechanical hyperalgesia (Von Frey threshold); format: in vivo; conditions: injected into hindpaw 24 hours after CFA, mice
Description: (§4) Red symbols represent responses from CFA-injected (A), or BK-injected (B) hindpaws while blue symbols represent responses from the other noninjected hindpaws of the same animals. Circles represent responses upon compound 18 treatment, whereas triangles represent responses upon vehicle treatments (A-C). Von Frey thresholds are measured and averaged. (***p<0.001, *p<0.05, two-tailed Student's T-test). […] Red symbols represent responses from CFA-injected hindpaws while blue symbols represent responses from the other non-injected hindpaws of the same animals. Number of flicks, licks, paw raises for 10 min at each time point are counted and averaged (n=8, *p<0.05, two-tailed Student's T-test).
(§5) Behavioral assays: Mice (C57B16 Mus musculus) of 8-10 weeks in age and 150-250 g Sprague Dawley rats were used for all behavioral assays. Animals were acclimated for 20-60 min to their testing environment prior to all experiments. Students' T test was used for all statistical calculations. All error bars represent standard error of the mean (SEM). Thermal plates, Hargreaves method (Plantar Analgesia meter) and Von Frey apparatus (Dynamic Plantar Aesthesiometer) were from UGO Basile and Columbus instruments. […] Briefly, mice were acclimated for 60 min to their testing environment prior to all experiments. Baseline responses were measured first and then 10 nM BK was injected to the skin of left hindpaws. Von Frey threshold or paw withdrawal latency was measured at 5, 15 and 30 min post injection. 1 mM of compound 18 was sometimes coinjected to left hindpaws to test its analgesic effect. For CFA-induced hyperalgesia test, 5 μg CFA in 10 uL was injected into mice (Caterina et al., Science 288:306, 2000; and Cao et al., Nature 392:390, 1998) and 50 μg in 100 uL (1:1 emulsion of mineral oil and saline; Obata et al., J Clin Invest 115:2393, 2005) was injected into rats and in 24 hrs measurements were performed. Before the measurement, the animals were re-acclimated to the environment for 20-60 min. […]

[5] = test system: BK-induced nociceptive mechanical behaviours; test: Bradykinin-induced mechanical hyperalgesia (Von Frey threshold); format: in vivo; conditions: short term hyperalgesia model, 1 mM coinjected, mice
Description: as §4
Behavioral assays: Mice (C57B16 Mus musculus) of 8-10 weeks in age and 150-250 g Sprague Dawley rats were used for all behavioral assays. Animals were acclimated for 20-60 min to their testing environment prior to all experiments. Students' T test was used for all statistical calculations. All error bars represent standard error of the mean (SEM). Thermal plates, Hargreaves method (Plantar Analgesia meter) and Von Frey apparatus (Dynamic Plantar Aesthesiometer) were from UGO Basile and Columbus instruments. […] Baseline responses were measured first and then 10 nM BK was injected to the skin of left hindpaws. Von Frey threshold or paw withdrawal latency was measured at 5, 15 and 30 min post injection. […]

[6] = test system: CFA-induced heat hyperalgesia; test: CFA-induced heat hyperalgesia; format: in vivo; conditions: mice
Description: as §4, §5

[7] = test system: bradykinin (BK)-induced heat hyperalgesia; test: Bradykinin-induced heat hyperalgesia; format: in vivo; conditions: mice
Description: as §4, §5

[8] = test system: TRPV1, TRPV2, TRPV3, TRPV4, or TRPM8; test: Effect on other thermoTRPs (summary statement); format: cell-based
From the text: TRPA1 inhibitors that can be employed in the practice of the present invention include compounds that interferes with the expression, modification, regulation or activation of TRPA1, or compounds that down-regulates one or more of the normal biological activities of TRPA1 (e.g., its ion channel). […] Various TRPA1-specific antagonists can be used in the instant invention. Some of these TRPA1-specific inhibitors are identified by the present inventors, as described in the Examples below. These compounds can be obtained commercially or are otherwise described in the art. One such compound is Compound 18, (Z)-4-(4-chlorophynyl)-3-methylbut-3-en-2-oxime. This compound can be obtained commercially from Maybridge (Cornwall, UK). Another example is Compound 40, N,N′-Bis-(2-hydroxybenzyl)-2,5-diamino-2,5-dimethylhexane, which has been described in U.S. Pat. No. 4,129,556. […] Thus, these two compounds can be readily used to treat or alleviate mechanical hyperalgesia as described in more detail below.

TRPA1 [9] = biological target: T6, TRPA1 (Homo sapiens, UniProt O75762); test: TRPA1 block, test not specified; conditions: summary statement
Target sequence in this assay (O75762 whole entry, species assumed): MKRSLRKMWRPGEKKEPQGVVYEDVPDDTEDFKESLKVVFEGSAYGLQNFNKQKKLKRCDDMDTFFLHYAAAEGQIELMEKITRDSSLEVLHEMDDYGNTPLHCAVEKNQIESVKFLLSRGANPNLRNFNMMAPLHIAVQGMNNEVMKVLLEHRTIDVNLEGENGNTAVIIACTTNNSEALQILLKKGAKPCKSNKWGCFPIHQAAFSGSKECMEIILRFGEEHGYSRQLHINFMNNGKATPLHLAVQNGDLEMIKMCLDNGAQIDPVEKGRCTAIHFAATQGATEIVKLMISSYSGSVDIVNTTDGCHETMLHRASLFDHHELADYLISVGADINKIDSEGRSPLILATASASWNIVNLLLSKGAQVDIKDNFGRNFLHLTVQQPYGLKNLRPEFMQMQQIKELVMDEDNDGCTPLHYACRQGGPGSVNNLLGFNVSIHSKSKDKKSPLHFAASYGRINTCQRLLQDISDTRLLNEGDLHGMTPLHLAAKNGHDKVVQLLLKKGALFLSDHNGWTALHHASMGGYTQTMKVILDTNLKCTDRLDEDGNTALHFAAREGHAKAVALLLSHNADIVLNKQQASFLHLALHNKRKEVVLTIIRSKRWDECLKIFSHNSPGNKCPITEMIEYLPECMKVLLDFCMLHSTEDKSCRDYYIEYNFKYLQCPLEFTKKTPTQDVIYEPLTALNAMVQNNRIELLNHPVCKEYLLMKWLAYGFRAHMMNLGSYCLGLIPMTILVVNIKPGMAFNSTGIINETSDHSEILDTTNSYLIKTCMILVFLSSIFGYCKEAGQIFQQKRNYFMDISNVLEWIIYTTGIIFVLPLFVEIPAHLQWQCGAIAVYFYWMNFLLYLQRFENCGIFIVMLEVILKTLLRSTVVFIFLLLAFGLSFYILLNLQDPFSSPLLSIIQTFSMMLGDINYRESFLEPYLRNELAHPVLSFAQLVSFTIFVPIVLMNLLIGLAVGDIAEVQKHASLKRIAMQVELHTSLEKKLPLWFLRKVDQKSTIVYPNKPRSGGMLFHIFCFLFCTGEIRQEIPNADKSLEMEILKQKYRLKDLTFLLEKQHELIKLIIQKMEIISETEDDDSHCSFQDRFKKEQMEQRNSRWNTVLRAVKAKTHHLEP

TRPA1 [10] = biological target: T6, TRPA1; test: FLIPR calcium-influx assay, block of cinnamaldehyde activation, CHO cells; format: cell-based; set-up: expressed in transfected cells; conditions: elicited by 50 μM cinnamaldehyde
Target sequence in this assay (O75762 whole entry): as the sequence (O75762 whole entry, species assumed) above
Description: as §1, §2, §3

TRPA1 [11] = biological target: T6, TRPA1; test: Cinnamaldehyde-induced currents in inside-out excised patches of Xenopus oocytes; format: cell-based; set-up: expressed in transfected cells; host or cells: Xenopus oocytes injected with cRNA (pOX vector); conditions: coapplication with cinnamaldehyde, inside-out macropatches
Target sequence in this assay (O75762 whole entry): as the sequence (O75762 whole entry, species assumed) above
Description: (C) Current-voltage relationship of TRPA1.
Mature 17 defolliculated Xenopus oocytes were injected with 50 nl of human TRPA1 cRNA at ˜1 μg/μl. Oocytes were incubated in ND96 (96 mM NaCl, 2 mM KCl, 1 mM MgCl2, 1.8 mM CaCl2, 5 mM HEPES, pH 7.4, supplemented with Na-pyruvate (2.5 mM), penicillin (100 u/ml) and streptomycin (100 μg/ml) 3-5 days to ensure expression. Vitelline envelopes were mechanically removed prior to recording. Recordings were made under voltage clamp from excised patches in the inside-out configuration at room temperature with 1-1.5 MΩ pipettes. The bath ground was isolated using an agar bridge. Capacitance and series resistance were compensated and solutions that eliminate native calcium-activated chloride currents were used (Patch electrode (in mM): 140 NaMES, 4 NaCl, 1 EGTA, 10 HEPES, pH 7.2; bath solution: 140 KMES, 4 KCl, 1 EGTA, 10 HEPES, pH 7.2). Compounds were added to the bath solution. Currents were recorded using a Multiclamp 700B amplifier and the pCLAMP acquisition suite.

For `CC(=Cc1ccc(Cl)cc1)C(C)=NO` [Compound 18, (Z)-4-(4-chlorophynyl)-3-methylbut-3-en-2-oxime], the pIC50 (mouse TRPA1) was 5.35, the “block of rat TRPA1” value (rat TRPA1) was “blocked” and the “block of TRPV1” value (TRPV1) was “did not block”. For the same compound, the “block of TRPV3” value (TRPV3) was “did not block”, the “block of TRPV4” value (TRPV4) was “did not block” and the “block of TRPM8” value (TRPM8) was “did not block”. For the same compound, the “cinnamaldehyde-induced nociceptive events (time spent licking and flicking hindpaw, 5 min)” value [1] was “suppresses; also recorded: significantly blocked”, the “behavioral response to the compound alone” value [2] was “did not cause any behavioral response” and the “nociceptive responses to acute heat to the paw” value [3] was “not affected”. The “nociceptive responses to acute pressure to the paw” value [3] was “not affected”, the CFA-induced mechanical hyperalgesia [4] was “reverses; also recorded: relieved” and the “BK-induced mechanical nociceptive behavior” value [5] was “reverses”. The CFA-induced heat hyperalgesia [6] was “not thermal (heat) behaviours; also recorded: did not block”, the BK-induced heat hyperalgesia [7] was “not thermal (heat) behaviours; also recorded: did not block” and the “effect on activation or activities of the other thermoTRPs” value [8] was “little or no effect”. The “inhibition of TRPA1 activation or function” value (TRPA1 [9]) was “specifically inhibit TRPA1 activation or function”, the pIC50 (TRPA1 [10]) was 5.51 and the “block of cinnamaldehyde-induced TRPA1 currents in excised patches” value (TRPA1 [11]) was “suppressed; also recorded: blocked”.
